Laboratory results from patent publication EP1113726B1, “USE OF NEOHESPERIDIN DIHYDROCHALCONE FOR THE MANUFACTURE OF A MEDICAMENT FOR PREVENTING OR TREATING ELEVATED BLOOD LIPID LEVEL-RELATED DISEASES” (Korea Research Institute of Bioscience and Biotechnology, priority 1998, dated 2000).

Key:
ICR female mice = conditions: mouse, oral, single dose of 1,000 mg/kg
Experimental: 12 seven-week-old, specific pathogen-free ICR female mice, six female mice each weighing about 25 to 29 g and six male mice each weighing about 34 to 38 g, were kept under an environment of 22±1°C, 55±5 % relative humidity and 12L/12D photoperiod. Fodder(Cheiljedang Co., mouse and rat fodder) and water were sterilized and fed to the mice.
Neohesperidin dihydrochalcone purchased from Aldrich-Sigma Chemical Co. (St. Louis, MO, U.S.A) was dissolved in 0.5 % Tween 80 to a concentration of 100 mg/ml, and the solution was orally administered to the mice in an amount of 0.2 ml per 20 g of mouse body weight. […] Further, on the 10th day, the mice were sacrificed and the internal organs were visually examined.

Human = test: Effect of administration to a human on plasma lipid metabolism; type: in vivo; conditions: two men in their mid-fifties, daily oral dose of 10mg/kg, capsule, 60 days, before versus after
Experimental: Two men in their mid-fifties were administered with a daily oral dose of 10mg/kg of neohesperidin dihydrochalcone in the form of a capsule for 60 days. The plasma cholesterol and neutral lipid(triglyceride) contents were determined before and after the administration.

[1] = system: New Zealand White rabbits; test: Analysis for fatty streak in the main artery of cholesterol-fed rabbits (Oil Red O staining); type: in vivo; conditions: 1 % cholesterol diet for 6 weeks plus 1 mg/kg Lovastatin or 0.05 % neohesperidin dihydrochalcone
Experimental: 30 three-month-old New Zealand White rabbits(Yeonam Horticulture and Animal Husbandry College, Korea), each weighing about 2.5 to 2.6 kg, were raised under a condition of temperature 20±2°C, relative humidity 55±5 %, and photoperiod 12L/12D. The rabbits were divided into 3 groups and 3 groups of rabbits were fed with 3 different diets, i.e., RC4 diet(Oriental Yeast Co., Japan) containing 1 % cholesterol(Control group); 1 % cholesterol plus 1 mg/kg Lovastatin®(Merck, U.S.A.)(Lovastatin group); and 1 % cholesterol plus 0.05 % neohesperidin dihydrochalcone(Neohesperidin dihydrochalcone group), respectively. RC4 diet comprises 7.6 % moisture, 22.8 % crude protein, 2.8 % crude fat, 8.8 % crude ash, 14.4 % crude cellulose and 43.6 % soluble nitrogen-free substances. Neohesperidin dihydrochalcone was purchased from Sigma Chemical Co.(St. Louis, MO).
The rabbits were fed for 6 weeks while being allowed free access to the diets and water.
The chest of each of the rabbits sacrificed in Step 2 was incised. The downward portion of the main artery from the site 1 cm above the aortic valve was cut out in a length of about 5 cm and the fat surrounding the main artery was removed. The main artery was incised in the middle along the longitudinal axis and pinned to a dish. The moist artery was photographed and, then, the staining of fatty streaks was carried out in accordance with the method of Esper, E., et al. (J. Lab. Clin. Med., 121, 103-110(1993)) as follows.
A part of the incised main artery was washed three times with anhydrous propylene glycol for 2 min and stained for 30 min. with a saturated solution of Oil Red O(ORO, Sigma Co.) dissolved in propylene glycol. Thereafter, the artery was washed twice with 85 % propylene glycol for 3 min. to remove remaining staining solution and, then washed with physiological saline. The artery was photographed and the photograph was traced. The area of stained region (fatty streak region) was determined with an image analyzer(LEICA, Q-600, Germany) and its proportion(%) to the total arterial area was calculated.

For `COc1ccc(CCC(=O)c2c(O)cc(O[C@@H]3O[C@H](CO)[C@@H](O)[C@H](O)[C@H]3O[C@@H]3O[C@@H](C)[C@H](O)[C@@H](O)[C@H]3O)cc2O)cc1O` [Neohesperidin dihydrochalcone], the “survival at day 10” value (ICR female mice) was “All the mice were alive”, the “pathological abnormality at autopsy” value (ICR female mice; autopsy on the 10th day) was “did not develop any pathological abnormality” and the “plasma cholesterol content reduced” value (Human) was 20%. The “plasma neutral lipid(triglyceride) content reduced” value (Human) was 15%, the “A: Proportion(%) of fatty streak region to the total arterial area” value ([1]; rabbit main artery) was 12 (±7) % and the “layer of macrophage-lipid complex on the arterial endothelium (Figs. 1B, 1C)” value ([1]; rabbits) was “no or very thin layers of macrophage-lipid complex”.
